The values that follow come from ChEMBL document CHEMBL3414527, “Engineering potent and selective analogues of GpTx-1, a tarantula venom peptide antagonist of the Na(V)1.7 sodium channel” (J Med Chem, 2015).

For orientation: IC50 means the concentration that gives 50% inhibition.

Bridge positions count the residues as written; N and C are the ends. Peptide text beside a SMILES is read from it.

For this experiment, the target named is Sodium channel protein type 5 subunit alpha (Homo sapiens, UniProt Q14524). Kind of experiment: Inhibition of human NaV1.5 at -140 mV holding potential by whole-cell patch clamp assay. On the technique in general: In patch-clamp work, channel activity is measured electrically.
Sodium channel protein type 5 subunit alpha, sequence (Q14524 whole entry): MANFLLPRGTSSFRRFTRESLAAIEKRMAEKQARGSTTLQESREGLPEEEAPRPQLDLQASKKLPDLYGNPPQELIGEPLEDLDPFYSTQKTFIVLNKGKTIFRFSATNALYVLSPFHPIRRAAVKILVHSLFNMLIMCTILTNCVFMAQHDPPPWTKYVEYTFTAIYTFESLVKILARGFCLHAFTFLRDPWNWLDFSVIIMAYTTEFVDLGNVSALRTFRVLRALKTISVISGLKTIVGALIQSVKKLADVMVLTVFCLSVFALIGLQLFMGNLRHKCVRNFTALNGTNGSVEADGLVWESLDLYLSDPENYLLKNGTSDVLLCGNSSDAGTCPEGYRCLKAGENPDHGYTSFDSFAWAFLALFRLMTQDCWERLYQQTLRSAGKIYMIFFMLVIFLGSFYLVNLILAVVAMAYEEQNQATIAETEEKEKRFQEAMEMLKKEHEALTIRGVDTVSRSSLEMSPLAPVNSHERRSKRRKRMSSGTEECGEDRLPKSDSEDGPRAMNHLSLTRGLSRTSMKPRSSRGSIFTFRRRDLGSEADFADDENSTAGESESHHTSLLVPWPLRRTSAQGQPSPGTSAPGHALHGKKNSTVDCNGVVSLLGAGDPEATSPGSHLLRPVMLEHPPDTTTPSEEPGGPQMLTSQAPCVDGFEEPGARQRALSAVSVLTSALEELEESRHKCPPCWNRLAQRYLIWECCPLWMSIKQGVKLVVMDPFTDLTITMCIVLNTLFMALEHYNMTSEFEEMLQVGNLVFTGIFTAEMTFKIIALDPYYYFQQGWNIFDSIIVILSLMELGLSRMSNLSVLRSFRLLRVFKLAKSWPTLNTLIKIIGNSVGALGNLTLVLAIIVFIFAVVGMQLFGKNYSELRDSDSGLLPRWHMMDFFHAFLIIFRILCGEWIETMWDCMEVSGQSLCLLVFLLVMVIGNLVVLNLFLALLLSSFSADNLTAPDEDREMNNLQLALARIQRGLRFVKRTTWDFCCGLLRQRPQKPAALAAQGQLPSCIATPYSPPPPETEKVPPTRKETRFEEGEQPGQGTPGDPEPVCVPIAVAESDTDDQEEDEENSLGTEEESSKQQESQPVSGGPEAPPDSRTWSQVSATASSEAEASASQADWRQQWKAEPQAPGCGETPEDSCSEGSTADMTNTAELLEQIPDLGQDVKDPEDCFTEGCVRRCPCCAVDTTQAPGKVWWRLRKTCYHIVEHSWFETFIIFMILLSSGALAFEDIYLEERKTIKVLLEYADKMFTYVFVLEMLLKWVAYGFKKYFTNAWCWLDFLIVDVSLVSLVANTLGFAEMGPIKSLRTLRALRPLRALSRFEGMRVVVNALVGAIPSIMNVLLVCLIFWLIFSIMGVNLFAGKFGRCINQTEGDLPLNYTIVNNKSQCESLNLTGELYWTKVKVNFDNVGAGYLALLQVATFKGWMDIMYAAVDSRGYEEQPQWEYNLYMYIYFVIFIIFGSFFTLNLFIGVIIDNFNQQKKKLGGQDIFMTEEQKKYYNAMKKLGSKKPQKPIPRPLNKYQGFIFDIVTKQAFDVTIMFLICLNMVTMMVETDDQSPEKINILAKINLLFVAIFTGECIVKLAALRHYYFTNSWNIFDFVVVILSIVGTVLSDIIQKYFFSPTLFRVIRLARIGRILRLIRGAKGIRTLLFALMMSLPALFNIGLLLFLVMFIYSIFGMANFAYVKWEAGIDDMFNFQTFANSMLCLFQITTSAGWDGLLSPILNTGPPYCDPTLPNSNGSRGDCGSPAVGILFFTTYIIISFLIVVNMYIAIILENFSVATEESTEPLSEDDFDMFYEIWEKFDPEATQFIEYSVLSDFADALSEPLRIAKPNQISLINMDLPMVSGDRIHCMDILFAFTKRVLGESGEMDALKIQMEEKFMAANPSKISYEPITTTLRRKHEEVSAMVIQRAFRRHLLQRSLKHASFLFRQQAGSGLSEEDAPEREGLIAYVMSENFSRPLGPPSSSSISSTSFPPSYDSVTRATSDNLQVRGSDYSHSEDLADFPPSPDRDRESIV
`CC[C@H](C)[C@@H]1NC(=O)[C@@H]2CSSC[C@@H]3NC(=O)[C@H](C(C)C)NC(=O)[C@H](CC(C)C)NC(=O)[C@H](CC(N)=O)NC(=O)[C@@H]4CCCN4C(=O)[C@H](CCCNC(=N)N)NC(=O)[C@H](CSSC[C@H](NC(=O)[C@H](CC(=O)O)NC(=O)[C@H](C)N)C(=O)N[C@@H](CC(C)C)C(=O)NCC(=O)N[C@@H](Cc4ccccc4)C(=O)N[C@@H](CCSC)C(=O)N[C@@H](CCCNC(=N)N)C(=O)N[C@@H](CCCCN)C(=O)N2)NC(=O)[C@H](CSSC[C@@H](C(=O)N[C@@H](CCCCN)C(=O)N[C@@H](Cc2ccc(O)cc2)C(=O)N[C@H](C(=O)N[C@@H](Cc2ccccc2)C(N)=O)C(C)C)NC(=O)[C@H](Cc2c[nH]c4ccccc24)NC(=O)[C@H](CCCCN)NC(=O)[C@H](Cc2cnc[nH]2)NC(=O)[C@H]([C@@H](C)O)NC(=O)[C@H](CCCNC(=N)N)NC(=O)[C@H](CO)NC3=O)NC(=O)[C@H](CCCCN)NC(=O)[C@H](CC(=O)O)NC(=O)[C@H](CC(N)=O)NC(=O)[C@H](CC(=O)O)NC(=O)[C@@H]2CCCN2C1=O` yielded an IC50 of over 5 µM.
`CC[C@H](C)[C@@H]1NC(=O)[C@@H]2CSSC[C@@H]3NC(=O)[C@H](C(C)C)NC(=O)[C@H](CC(C)C)NC(=O)[C@H](CC(N)=O)NC(=O)[C@@H]4CCCN4C(=O)[C@H](CCCNC(=N)N)NC(=O)[C@H](CSSC[C@H](NC(=O)[C@@H](N)CC(=O)O)C(=O)N[C@@H](CC(C)C)C(=O)NCC(=O)N[C@@H](Cc4ccccc4)C(=O)N[C@@H](CCSC)C(=O)N[C@@H](CCCNC(=N)N)C(=O)N[C@@H](CCCCN)C(=O)N2)NC(=O)[C@H](CSSC[C@@H](C(=O)N[C@@H](CCCCN)C(=O)N[C@@H](Cc2ccc(O)cc2)C(=O)N[C@H](C(=O)N[C@@H](Cc2ccccc2)C(=O)N[C@@H](C)C(N)=O)C(C)C)NC(=O)[C@H](Cc2c[nH]c4ccccc24)NC(=O)[C@H](CCCCN)NC(=O)[C@H](Cc2cnc[nH]2)NC(=O)[C@H]([C@@H](C)O)NC(=O)[C@H](CCCNC(=N)N)NC(=O)[C@H](CO)NC3=O)NC(=O)[C@H](CCCCN)NC(=O)[C@H](CC(=O)O)NC(=O)[C@H](CC(N)=O)NC(=O)[C@H](CC(=O)O)NC(=O)[C@@H]2CCCN2C1=O` had a half-maximal inhibitory concentration (IC50) of over 5 µM.
As for `CC[C@H](C)[C@@H]1NC(=O)[C@@H]2CSSC[C@@H]3NC(=O)[C@H](C(C)C)NC(=O)[C@H](CC(C)C)NC(=O)[C@H](CC(N)=O)NC(=O)[C@@H]4CCCN4C(=O)[C@H](CCCNC(=N)N)NC(=O)[C@H](CSSC[C@H](NC(=O)[C@@H](N)CC(=O)O)C(=O)N[C@@H](CC(C)C)C(=O)NCC(=O)N[C@@H](C4CCCC4)C(=O)N[C@@H](CCSC)C(=O)N[C@@H](CCCNC(=N)N)C(=O)N[C@@H](CCCCN)C(=O)N2)NC(=O)[C@H](CSSC[C@@H](C(=O)N[C@@H](CCCCN)C(=O)N[C@@H](Cc2ccc(O)cc2)C(=O)N[C@H](C(=O)N[C@@H](Cc2ccccc2)C(N)=O)C(C)C)NC(=O)[C@H](Cc2c[nH]c4ccccc24)NC(=O)[C@H](CCCCN)NC(=O)[C@H](Cc2cnc[nH]2)NC(=O)[C@H]([C@@H](C)O)NC(=O)[C@H](CCCNC(=N)N)NC(=O)[C@H](CO)NC3=O)NC(=O)[C@H](CCCCN)NC(=O)[C@H](CC(=O)O)NC(=O)[C@H](CC(N)=O)NC(=O)[C@H](CC(=O)O)NC(=O)[C@@H]2CCCN2C1=O`, the figure is over 10 µM; as for `CCCC[C@@H]1NC(=O)[C@H](Cc2ccccc2)NC(=O)CNC(=O)[C@H](CC(C)C)NC(=O)[C@@H](NC(=O)[C@@H](N)CC(=O)O)CSSC[C@@H]2NC(=O)[C@@H]3CSSC[C@@H](C(=O)N[C@@H](CCCCN)C(=O)N[C@@H](Cc4ccc(O)cc4)C(=O)N[C@H](C(=O)N[C@@H](Cc4ccccc4)C(N)=O)C(C)C)NC(=O)[C@H](Cc4c[nH]c5ccccc45)NC(=O)[C@H](CCCCN)NC(=O)[C@H](Cc4cnc[nH]4)NC(=O)[C@H]([C@@H](C)O)NC(=O)[C@H](CCCNC(=N)N)NC(=O)[C@H](CO)NC(=O)[C@H](CSSC[C@H](NC(=O)[C@H](CCCCN)NC(=O)[C@H](CCCNC(=N)N)NC1=O)C(=O)N[C@@H]([C@@H](C)CC)C(=O)N1CCC[C@H]1C(=O)N[C@@H](CC(=O)O)C(=O)N[C@@H](CC(N)=O)C(=O)N[C@@H](CC(=O)O)C(=O)N[C@@H](CCCCN)C(=O)N3)NC(=O)[C@H](C(C)C)NC(=O)[C@H](CC(C)C)NC(=O)[C@H](CC(N)=O)NC(=O)[C@@H]1CCCN1C(=O)[C@H](CCCNC(=N)N)NC2=O`, 1.1 µM; as for `CCCC[C@@H]1NC(=O)[C@H](C)NC(=O)CNC(=O)[C@H](CC(C)C)NC(=O)[C@@H](NC(=O)[C@@H](N)CC(=O)O)CSSC[C@@H]2NC(=O)[C@@H]3CSSC[C@@H](C(=O)N[C@@H](CCCCN)C(=O)N[C@@H](Cc4ccc(O)cc4)C(=O)N[C@H](C(=O)N[C@@H](Cc4ccccc4)C(N)=O)C(C)C)NC(=O)[C@H](Cc4c[nH]c5ccccc45)NC(=O)[C@H](CCCCN)NC(=O)[C@H](Cc4cnc[nH]4)NC(=O)[C@H]([C@@H](C)O)NC(=O)[C@H](CCCNC(=N)N)NC(=O)[C@H](CO)NC(=O)[C@H](CSSC[C@H](NC(=O)[C@H](CCCCN)NC(=O)[C@H](CCCNC(=N)N)NC1=O)C(=O)N[C@@H]([C@@H](C)CC)C(=O)N1CCC[C@H]1C(=O)N[C@@H](CC(=O)O)C(=O)N[C@@H](CC(N)=O)C(=O)N[C@@H](CC(=O)O)C(=O)N[C@@H](CCCCN)C(=O)N3)NC(=O)[C@H](C(C)C)NC(=O)[C@H](CC(C)C)NC(=O)[C@H](CC(N)=O)NC(=O)[C@@H]1CCCN1C(=O)[C@H](CCCNC(=N)N)NC2=O`, over 10 µM.
The value for `CC[C@H](C)[C@@H]1NC(=O)[C@@H]2CSSC[C@@H]3NC(=O)[C@H](C(C)C)NC(=O)[C@H](CC(C)C)NC(=O)[C@H](CC(N)=O)NC(=O)[C@@H]4CCCN4C(=O)[C@H](CCCNC(=N)N)NC(=O)[C@H](CSSC[C@H](NC(=O)[C@H](C)N)C(=O)N[C@@H](CC(C)C)C(=O)NCC(=O)N[C@@H](Cc4ccccc4)C(=O)N[C@@H](CCSC)C(=O)N[C@@H](CCCNC(=N)N)C(=O)N[C@@H](CCCCN)C(=O)N2)NC(=O)[C@H](CSSC[C@@H](C(=O)N[C@@H](CCCCN)C(=O)N[C@@H](Cc2ccc(O)cc2)C(=O)N[C@H](C(=O)N[C@@H](Cc2ccccc2)C(N)=O)C(C)C)NC(=O)[C@H](Cc2c[nH]c4ccccc24)NC(=O)[C@H](CCCCN)NC(=O)[C@H](Cc2cnc[nH]2)NC(=O)[C@H]([C@@H](C)O)NC(=O)[C@H](CCCNC(=N)N)NC(=O)[C@H](CO)NC3=O)NC(=O)[C@H](CCCCN)NC(=O)[C@H](CC(=O)O)NC(=O)[C@H](CC(N)=O)NC(=O)[C@H](CC(=O)O)NC(=O)[C@@H]2CCCN2C1=O` (H-ACLGFMRKCIPDNDKCCRPNLVCSRTHKWCKYVF-NH2; disulfide 2-17, 9-23, 16-30) was over 5 µM; that for `CC[C@H](C)[C@@H]1NC(=O)[C@@H]2CSSC[C@@H]3NC(=O)[C@H](C(C)C)NC(=O)[C@H](CC(C)C)NC(=O)[C@H](CC(N)=O)NC(=O)[C@@H]4CCCN4C(=O)[C@H](CCCNC(=N)N)NC(=O)[C@H](CSSC[C@H](NC(=O)[C@@H](N)CC(=O)O)C(=O)N[C@@H](CC(C)C)C(=O)N[C@@H](C)C(=O)N[C@@H](Cc4ccccc4)C(=O)N[C@@H](CCSC)C(=O)N[C@@H](CCCNC(=N)N)C(=O)N[C@@H](CCCCN)C(=O)N2)NC(=O)[C@H](CSSC[C@@H](C(=O)N[C@@H](CCCCN)C(=O)N[C@@H](Cc2ccc(O)cc2)C(=O)N[C@H](C(=O)N[C@@H](Cc2ccccc2)C(N)=O)C(C)C)NC(=O)[C@H](Cc2c[nH]c4ccccc24)NC(=O)[C@H](CCCCN)NC(=O)[C@H](Cc2cnc[nH]2)NC(=O)[C@H]([C@@H](C)O)NC(=O)[C@H](CCCNC(=N)N)NC(=O)[C@H](CO)NC3=O)NC(=O)[C@H](CCCCN)NC(=O)[C@H](CC(=O)O)NC(=O)[C@H](CC(N)=O)NC(=O)[C@H](CC(=O)O)NC(=O)[C@@H]2CCCN2C1=O` (H-DCLAFMRKCIPDNDKCCRPNLVCSRTHKWCKYVF-NH2; disulfide 2-17, 9-23, 16-30) was over 5 µM; that for `CC[C@H](C)[C@@H]1NC(=O)[C@@H]2CSSC[C@@H]3NC(=O)[C@H](C(C)C)NC(=O)[C@H](CC(C)C)NC(=O)[C@H](CC(N)=O)NC(=O)[C@@H]4CCCN4C(=O)[C@H](CCCNC(=N)N)NC(=O)[C@H](CSSC[C@H](NC(=O)[C@@H](N)CC(=O)O)C(=O)N[C@@H](CC(C)C)C(=O)NCC(=O)N[C@@H](C)C(=O)N[C@@H](Cc4ccccc4)C(=O)N[C@@H](CCCNC(=N)N)C(=O)N[C@@H](CCCCN)C(=O)N2)NC(=O)[C@H](CSSC[C@@H](C(=O)N[C@@H](CCCCN)C(=O)N[C@@H](Cc2ccc(O)cc2)C(=O)N[C@H](C(=O)N[C@@H](Cc2ccccc2)C(N)=O)C(C)C)NC(=O)[C@H](Cc2c[nH]c4ccccc24)NC(=O)[C@H](CCCCN)NC(=O)[C@H](Cc2cnc[nH]2)NC(=O)[C@H](CC(C)C)NC(=O)[C@H](CCCNC(=N)N)NC(=O)[C@H](CO)NC3=O)NC(=O)[C@H](CCCCN)NC(=O)[C@H](CC(=O)O)NC(=O)[C@H](CC(N)=O)NC(=O)[C@H](CC(=O)O)NC(=O)[C@@H]2CCCN2C1=O` (H-DCLGAFRKCIPDNDKCCRPNLVCSRLHKWCKYVF-NH2; disulfide 2-17, 9-23, 16-30) was over 10 µM.
As for `CC[C@H](C)[C@@H]1NC(=O)[C@@H]2CSSC[C@@H]3NC(=O)[C@H](C(C)C)NC(=O)[C@H](CC(C)C)NC(=O)[C@H](CC(N)=O)NC(=O)[C@@H]4CCCN4C(=O)[C@H](CCCNC(=N)N)NC(=O)[C@H](CSSC[C@H](NC(=O)[C@@H](N)CC(=O)O)C(=O)N[C@@H](CC(C)C)C(=O)NCC(=O)N[C@@H](Cc4ccccc4)C(=O)N[C@@H](CCSC)C(=O)N[C@@H](C)C(=O)N[C@@H](CCCCN)C(=O)N2)NC(=O)[C@H](CSSC[C@@H](C(=O)N[C@@H](CCCCN)C(=O)N[C@@H](Cc2ccc(O)cc2)C(=O)N[C@H](C(=O)N[C@@H](Cc2ccccc2)C(N)=O)C(C)C)NC(=O)[C@H](Cc2c[nH]c4ccccc24)NC(=O)[C@H](CCCCN)NC(=O)[C@H](Cc2cnc[nH]2)NC(=O)[C@H]([C@@H](C)O)NC(=O)[C@H](CCCNC(=N)N)NC(=O)[C@H](CO)NC3=O)NC(=O)[C@H](CCCCN)NC(=O)[C@H](CC(=O)O)NC(=O)[C@H](CC(N)=O)NC(=O)[C@H](CC(=O)O)NC(=O)[C@@H]2CCCN2C1=O` (H-DCLGFMAKCIPDNDKCCRPNLVCSRTHKWCKYVF-NH2; disulfide 2-17, 9-23, 16-30), the figure is over 5 µM.
